Experimental data as given in patent publication US10752637B2, “Bis-diox(ol)ane compounds” (Koninklijke Coöperatie Cosun U.A., priority 2016, dated 2020).
≈ marks a conversion by molar mass, not a printed value.

Experiment: water-solubility of the product

water-solubility (in water, at ambient temperature): approximately 25 wt. % | solubility (water): ~350 mg/mL (≈ 930 mM)
SMILES: CC1(C)OC(C2OC(C)(C)O[C@H]2C(=O)NCCO)[C@@H](C(=O)NCCO)O1 (some centres unmarked) [GalX-di-ethanolamide]
